The text below walks through data of PMC7023430, “4-Aminobenzoic Acid Derivatives: Converting Folate Precursor to Antimicrobial and Cytotoxic Agents” (Biomolecules, 2019).

The structures appear in SMILES notation. Converted amounts (≈) assume the structure as drawn. Read-outs that look alike come from different tables or passages of the source.

In data set [1] the test system is Klebsiella pneumoniae D 11750/08. The data set can be described thus: Antibacterial microdilution broth method, K. pneumoniae. The note with it: K. pneumoniae D 11750/08; for MIC KP 24 h: 24 h incubation; for MIC KP 48 h: 48 h incubation. (In general: Broth dilution looks for growth in wells or tubes with falling amounts of substance.)
The subject of data set [2] is Mycobacterium kansasii 235/80. The data set can be described thus: Antimycobacterial micromethod in Šula's medium, M. kansasii 235/80. In kind it is cell-based.
The test system of a further data set is Candida glabrata 20/I. The data set can be described thus: Antifungal microdilution broth method, C. glabrata. The class given is cell-based. The following applies: Nakaseomyces glabratus. The method in brief: (§1)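 MIC by visual endpoint reading after twofold serial dilution of DMSO-dissolved compounds in RPMI-1640 (L-glutamine, 2% glucose, pH 7.0 with MOPS). Method follows EUCAST instructions, slightly modified; duplicates required agreement within one dilution step.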

The test system of data set [3] is methicillin-resistant Staphylococcus aureus ATCC 43300, CCM 4750 (MRSA). The data set can be described thus: Antibacterial microdilution broth method, MRSA. In kind it is cell-based. The note with it: Staphylococcus aureus.
Another data set deals with eight fungal strains. The data set can be described thus: Antifungal activity. The class given is cell-based. The following applies: statement over the fungal panel; time not stated. The method in brief:
as §1

The test system of data set [4] is four Gram-positive and four Gram-negative strains. The data set can be described thus: Antibacterial activity. In kind it is cell-based.
For data set [5], the system named is Mtb. 331/88 and three non-tuberculous mycobacterial strains. The data set can be described thus: Antimycobacterial activity. In kind it is cell-based. The note with it: Mycobacterium tuberculosis; statement over four mycobacterial strains; time not stated.
The mark [6] stands for this setting: 235/80, 168 h, 7 days incubation at 37 °C, read-out: MIC M. kansasii 235/80 7 d.
[7] abbreviates: 235/80, 336 h, 14 days incubation at 37 °C, read-out: MIC M. kansasii 235/80 14 d.
Where [8] appears, read: 235/80, 504 h, 21 days incubation at 37 °C, read-out: MIC M. kansasii 235/80 21 d.
Setting [9] is: 24 h incubation, read-out: MIC MRSA 24 h.
[10] abbreviates: 48 h incubation, read-out: MIC MRSA 48 h.

For the compound `O=C(O)c1ccc(N=Cc2c(O)cccc2Cl)cc1` [1k, 4-[(2-Chloro-6-hydroxybenzylidene)amino]benzoic acid], the “MIC KP 24 h” value in data set [1] is >500 µM. For the same compound, the “MIC KP 48 h” value in data set [1] is >500 µM. Further, the MIC in data set [2] (setting [6]) is 250 µM (≈ 68.9 µg/mL); in data set [2] (setting [7]), 500 µM (≈ 138 µg/mL); in data set [2] (setting [8]), 500 µM (≈ 138 µg/mL); in the data set with Candida glabrata 20/I (24 h, read-out: MIC CG 24 h) it was 125 µM (≈ 34.5 µg/mL); in the data set on Candida glabrata 20/I (48 h, read-out: MIC CG 48 h), 125 µM (≈ 34.5 µg/mL); in data set [3] (setting [9]) it was > 500 µM. The MIC in data set [3] (setting [10]) is > 500 µM.
For the compound `O=C(O)c1ccc(N=Cc2ccc(Cl)cc2O)cc1` [1l, 4-[(4-Chloro-2-hydroxybenzylidene)amino]benzoic acid], the “MIC KP 24 h” value in data set [1] was >500 µM. For the same compound, the “MIC KP 48 h” value in data set [1] is listed as >500 µM. In addition, the MIC in data set [2] (setting [6]) is 250 µM (≈ 68.9 µg/mL); in data set [2] (setting [7]) it was 500 µM (≈ 138 µg/mL); in data set [2] (setting [8]), 500 µM (≈ 138 µg/mL); in the data set on Candida glabrata 20/I (24 h, read-out: MIC CG 24 h), 500 µM (≈ 138 µg/mL); in the data set with Candida glabrata 20/I (48 h, read-out: MIC CG 48 h), > 500 µM; in data set [3] (setting [9]) it was > 500 µM. Besides, the MIC in data set [3] (setting [10]) was > 500 µM; in the data set with eight fungal strains, ≥ 250 µM.
Regarding `O=C(O)c1ccc(N=Cc2cccc(Cl)c2O)cc1` [1m, 4-[(3-Chloro-2-hydroxybenzylidene)amino]benzoic acid], the “MIC KP 24 h” value in data set [1] is listed as >500 µM. In addition, the “MIC KP 48 h” value in data set [1] was >500 µM. The MIC in data set [2] (setting [6]) was 500 µM (≈ 138 µg/mL); in data set [2] (setting [7]) it was 500 µM (≈ 138 µg/mL); in data set [2] (setting [8]), 500 µM (≈ 138 µg/mL); in the data set on Candida glabrata 20/I (24 h, read-out: MIC CG 24 h), 62.5 µM (≈ 17.2 µg/mL); in the data set on Candida glabrata 20/I (48 h, read-out: MIC CG 48 h), 62.5 µM (≈ 17.2 µg/mL); in data set [3] (setting [9]) it was > 500 µM. Besides, the MIC in data set [3] (setting [10]) was > 500 µM; against eight fungal strains, ≥ 31.2 µM.
Regarding `O=C(O)c1ccc(N=Cc2cc(Cl)cc(Cl)c2O)cc1` [1n, 4-[(3,5-Dichloro-2-hydroxybenzylidene)amino]benzoic acid], in data set [1], the “MIC KP 24 h” value is reported as >500 µM. Also, the “MIC KP 48 h” value in data set [1] is given as >500 µM. Further, the MIC turned out to be 500 µM (≈ 155 µg/mL) in data set [2] (setting [6]); 500 µM (≈ 155 µg/mL) in data set [2] (setting [7]); 500 µM (≈ 155 µg/mL) in data set [2] (setting [8]); 125 µM (≈ 38.8 µg/mL) in the data set with Candida glabrata 20/I (24 h, read-out: MIC CG 24 h); 125 µM (≈ 38.8 µg/mL) in the data set with Candida glabrata 20/I (48 h, read-out: MIC CG 48 h); 250 µM (≈ 77.5 µg/mL) in data set [3] (setting [9]). Also, the MIC in data set [3] (setting [10]) was 250 µM (≈ 77.5 µg/mL); in the data set on eight fungal strains it was ≥ 125 µM.
For `O=C(O)c1ccc(N=Cc2cc(Cl)cc(Br)c2O)cc1` [1o, 4-[(3-Bromo-5-chloro-2-hydroxybenzylidene)amino]benzoic acid], in data set [1], the “MIC KP 24 h” value was found to be 500 µM (≈ 177 µg/mL). In data set [1], the “MIC KP 48 h” value is listed as 500 µM (≈ 177 µg/mL). In addition, the MIC in data set [2] (setting [6]) was determined as 250 µM (≈ 88.6 µg/mL); in data set [2] (setting [7]), 500 µM (≈ 177 µg/mL); in data set [2] (setting [8]) it was 500 µM (≈ 177 µg/mL); in the data set on Candida glabrata 20/I (24 h, read-out: MIC CG 24 h) it was 15.6 µM (≈ 5.54 µg/mL); in the data set with Candida glabrata 20/I (48 h, read-out: MIC CG 48 h), 15.6 µM (≈ 5.54 µg/mL); in data set [3] (setting [9]), 31.2 µM (≈ 11.1 µg/mL). The MIC in data set [3] (setting [10]) is 31.2 µM (≈ 11.1 µg/mL).
As to `O=C(O)c1ccc(N=Cc2cc(Cl)cc(I)c2O)cc1` [1p, 4-[(5-Chloro-2-hydroxy-3-iodobenzylidene)amino]benzoic acid], the “MIC KP 24 h” value in data set [1] came to 125 µM (≈ 50.2 µg/mL). Moreover, the “MIC KP 48 h” value in data set [1] amounted to 125 µM (≈ 50.2 µg/mL). For the same compound, the MIC in data set [2] (setting [6]) worked out at 250 µM (≈ 100 µg/mL); in data set [2] (setting [7]), 500 µM (≈ 201 µg/mL); in data set [2] (setting [8]) it was 500 µM (≈ 201 µg/mL); with Candida glabrata 20/I (24 h, read-out: MIC CG 24 h), 7.81 µM (≈ 3.14 µg/mL); in the data set with Candida glabrata 20/I (48 h, read-out: MIC CG 48 h), 7.81 µM (≈ 3.14 µg/mL); in data set [3] (setting [9]), 15.6 µM (≈ 6.27 µg/mL). Also, the MIC in data set [3] (setting [10]) stood at 15.6 µM (≈ 6.27 µg/mL).
In the case of `O=C(O)c1ccc(N=Cc2cc(I)cc(I)c2O)cc1` [1q, 4-[(2-Hydroxy-3,5-diiodobenzylidene)amino]benzoic acid], the “MIC KP 24 h” value in data set [1] came to 500 µM (≈ 247 µg/mL). Moreover, the “MIC KP 48 h” value in data set [1] is 500 µM (≈ 247 µg/mL). In addition, the MIC was 250 µM (≈ 123 µg/mL) in data set [2] (setting [6]); 500 µM (≈ 247 µg/mL) in data set [2] (setting [7]); 500 µM (≈ 247 µg/mL) in data set [2] (setting [8]); 7.81 µM (≈ 3.85 µg/mL) in the data set with Candida glabrata 20/I (24 h, read-out: MIC CG 24 h); 7.81 µM (≈ 3.85 µg/mL) in the data set with Candida glabrata 20/I (48 h, read-out: MIC CG 48 h); 62.5 µM (≈ 30.8 µg/mL) in data set [3] (setting [9]). Besides, in data set [3] (setting [10]), the MIC was determined as 62.5 µM (≈ 30.8 µg/mL).
Turning to `O=C(O)c1ccc(N=Cc2ccc([N+](=O)[O-])o2)cc1` [1r, 4-{[(5-Nitrofuran-2-yl)methylene]amino}benzoic acid], the “MIC KP 24 h” value in data set [1] turned out to be 500 µM (≈ 130 µg/mL). The “MIC KP 48 h” value in data set [1] is 500 µM (≈ 130 µg/mL). For the same compound, the MIC was 16.2 to 32.5 µg/mL in data set [4] (converted from 62.5–125 µM, read-out: MIC, staphylococci); 62.5 to 125 µM in data set [4] (read-out: MIC, three staphylococcal strains); 62.5 µM (≈ 16.3 µg/mL) in data set [2] (setting [6]); 125 µM (≈ 32.5 µg/mL) in data set [2] (setting [7]); 250 µM (≈ 65.1 µg/mL) in data set [2] (setting [8]); 250 µM (≈ 65.1 µg/mL) with Candida glabrata 20/I (24 h, read-out: MIC CG 24 h). Also, the MIC was 250 µM (≈ 65.1 µg/mL) in the data set on Candida glabrata 20/I (48 h, read-out: MIC CG 48 h); 62.5 µM (≈ 16.3 µg/mL) in data set [3] (setting [9]); 62.5 µM (≈ 16.3 µg/mL) in data set [3] (setting [10]); 62.5 to 250 µM (≈ 16.3 to 65.1 µg/mL) in data set [5].
